Experimental data as given in the supplement of paper PMC8967900.

Assays:
Experiment in all cases: selective drug sensitivity score (sDSS, relative to normal bone marrow) (sDSS (score)); higher = more potent and effective on the cell line relative to normal bone marrow cells
Settings in all cases: 72 h
COG-LL-394h = system: COG-LL-394h
COG-LL-332h = system: COG-LL-332h
ALL-PO = system: ALL-PO
COG-LL-317 = system: COG-LL-317
MHH-CALL-4 = system: MHH-CALL-4
RCH-ACV = system: RCH-ACV
MOLT-16 = system: MOLT-16
KASUMI-10 = system: KASUMI-10
NALM-6 = system: NALM-6
MN-60 = system: MN-60
NALM-16 = system: NALM-16
KARPAS-45 = system: KARPAS-45
KASUMI-9 = system: KASUMI-9
HPB-ALL = system: HPB-ALL
SUP-B15 = system: SUP-B15
COG-LL-355h = system: COG-LL-355h
P12-ICHIKAWA = system: P12-ICHIKAWA
LC4-1 = system: LC4-1
PF-382 = system: PF-382
MHH-CALL-2 = system: MHH-CALL-2
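Further: ALL cell lines in 384-well plates, five doses spanning 10,000-fold, each plate scaled between vehicle and 100 µmol/L benzalkonium chloride controls, sDSS an adapted area-under-curve metric.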

Row | Compound | selective drug sensitivity score (COG-LL-394h) | selective drug sensitivity score (COG-LL-332h) | selective drug sensitivity score (ALL-PO) | selective drug sensitivity score (COG-LL-317) | selective drug sensitivity score (MHH-CALL-4) | selective drug sensitivity score (RCH-ACV) | selective drug sensitivity score (MOLT-16) | selective drug sensitivity score (KASUMI-10) | selective drug sensitivity score (NALM-6) | selective drug sensitivity score (MN-60) | selective drug sensitivity score (NALM-16) | selective drug sensitivity score (KARPAS-45) | selective drug sensitivity score (KASUMI-9) | selective drug sensitivity score (HPB-ALL) | selective drug sensitivity score (SUP-B15) | selective drug sensitivity score (COG-LL-355h) | selective drug sensitivity score (P12-ICHIKAWA) | selective drug sensitivity score (LC4-1) | selective drug sensitivity score (PF-382) | selective drug sensitivity score (MHH-CALL-2)
1 | C=C1C[C@@H]2[C@H](CC[C@]3(C)C(=O)CC[C@@H]23)[C@@]2(C)C=CC(=O)C=C12 [Exemestane] (top concentration 10000 nM) | -0.4 | 2.4 | -1.9 | 0 | -1.9 | 0.4 | -1.7 | -1.9 | 1.5 | -1.9 | -1.9 | -1.2 | -0.8 | 5.5 | 1.1 | 1 | -1.9 | 3.6 | -0.4 | -0.9
2 | COc1cc2c(Oc3ccc(NC(=O)C4(C(=O)Nc5ccc(F)cc5)CC4)cc3F)ccnc2cc1OCCCN1CCOCC1 [Foretinib] (top concentration 1000 nM) | 1.84 | 4.74 | 10.8 | 0.44 | 1.64 | 0.44 | 0.24 | 17.8 | 0.74 | -4.46 | 1.04 | 2.44 | -0.06 | 3.34 | 8.74 | 0.34 | 1.34 | 2.04 | 0.34 | 7.04
3 | COc1cc(Nc2ncc(F)c(Nc3ccc4c(n3)N(COP(=O)(O)O)C(=O)C(C)(C)O4)n2)cc(OC)c1OC [Fostamatinib] (top concentration 2500 nM) | -1.54 | -0.44 | 8.06 | -2.84 | -2.74 | 7.96 | -2.84 | 8.66 | 2.96 | -1.34 | -1.44 | 4.56 | 1.76 | -1.94 | 0.96 | 1.96 | -2.84 | 2.56 | -1.14 | 0.56
4 | CC1(C)OCCn2c1nc1c(N3CCOCC3)nc(-c3cnc(N)nc3)nc12 [GDC-0084] (top concentration 10000 nM) | -0.3 | 3.7 | 11.8 | 3.1 | 10.7 | 20.8 | 6.8 | 3.9 | 7 | 5.2 | 2.5 | 5.1 | 9.5 | 3.2 | 5.1 | 9 | 4.1 | 4.2 | 5.6 | 11.2
5 | CC(C)c1cc(-c2n[nH]c(=O)n2-c2ccc3c(ccn3C)c2)c(O)cc1O [Ganetespib] (top concentration 1000 nM) | -3.26 | 6.64 | 3.84 | 8.64 | -0.56 | 3.44 | 4.74 | 4.64 | 2.34 | -5.06 | -2.76 | -0.26 | 0.14 | 0.64 | 1.74 | 1.34 | -0.96 | 1.44 | 1.64 | -1.36
6 | CCc1nc(C(N)=O)c(Nc2ccc(N3CCC(N4CCN(C)CC4)CC3)c(OC)c2)nc1NC1CCOCC1 [Gilteritinib] (top concentration 1000 nM) | 1.78 | -2.52 | 2.28 | -2.52 | -2.52 | 2.58 | -2.52 | 10.4 | -2.52 | -2.52 | -2.52 | -2.12 | 2.88 | -1.62 | -2.42 | 2.38 | -2.52 | 0.38 | -2.52 | -1.32
7 | CCN(CC)Cc1ccc2cc(COC(=O)Nc3ccc(C(=O)NO)cc3)ccc2c1 [Givinostat] (top concentration 1000 nM) | 2.4 | -0.3 | 3.9 | 4.1 | 3.4 | 9.8 | 5.1 | 4.7 | 1.2 | -1.2 | -1 | 11.1 | 7.6 | 6.3 | 8.1 | 5 | 3.1 | 5.5 | 2.9 | 8.6
8 | COCCNCc1ccc(-c2cc3nccc(Oc4ccc(NC(=S)NC(=O)Cc5ccc(F)cc5)cc4F)c3s2)nc1 [Glesatinib] (top concentration 2500 nM) | 0.84 | 4.54 | 9.04 | 0.64 | 0.14 | 3.74 | -1.96 | 8.74 | -1.96 | -1.96 | 0.34 | 2.34 | -0.36 | -0.26 | 7.24 | 0.54 | -1.66 | 1.94 | -0.56 | 0.94
9 | C=CC(=O)N1CCC[C@@H](n2nc(-c3ccc(Oc4ccccc4)cc3)c3c(N)ncnc32)C1 [Ibrutinib] (top concentration 1000 nM) | 0 | 2.4 | 1.8 | 0 | 0 | 15 | 2 | 0 | 2.4 | 0 | 0 | 3.4 | 1.3 | 1.5 | 10 | 0 | 0 | 1 | 0 | 0.1
